Assay results as given in paper doi:10.1101/2021.09.30.462449v1 (biorxiv, 2021).

Tests used:
Experiment in all cases: biochemical
Conditions in all cases: read-out: % inhibition mean (Z'Lyte)
PRKACA (PKA) = PRKACA (PKA) (Homo sapiens, UniProt P17612)
PLK3 = PLK3 (Homo sapiens, UniProt Q9H4B4)
CSNK1E (CK1 epsilon) = CSNK1E (CK1 epsilon) (Homo sapiens, UniProt P49674)
CDC42 BPA (MRCKA) = CDC42 BPA (MRCKA) (Homo sapiens, UniProt Q5VT25)
CSNK2A2 (CK2 alpha 2) = CSNK2A2 (CK2 alpha 2) (Homo sapiens, UniProt P19784)
TEK (TIE2) Y897S = TEK (TIE2) Y897S (Homo sapiens, UniProt Q02763, Y897S)
LYN A = LYN A (Homo sapiens, UniProt P07948)
MARK2 = MARK2 (Homo sapiens, UniProt Q7KZI7)
PAK2 (PAK65) = PAK2 (PAK65) (Homo sapiens, UniProt Q13177)
AMPK (A1/B2/G3) = AMPK (A1/B2/G3) (Homo sapiens, UniProt Q13131)
GRK5 = GRK5 (Homo sapiens, UniProt P34947)
KIT = KIT (Homo sapiens, UniProt P10721)
[1] = biological target: EGFR (ErbB1) T790M C797S L858R (Homo sapiens, UniProt P00533, C797S/L858R/T790M)
FLT1 (VEGFR1) = FLT1 (VEGFR1) (Homo sapiens, UniProt P17948)
RPS6KB2 (p70S6Kb) = RPS6KB2 (p70S6Kb) (Homo sapiens, UniProt Q9UBS0)
PDGFRB (PDGFR beta) = PDGFRB (PDGFR beta) (Homo sapiens, UniProt P09619)
BTK = BTK (Homo sapiens, UniProt Q06187)
DAPK3 (ZIPK) = DAPK3 (ZIPK) (Homo sapiens, UniProt O43293)
MAPKAPK2 = MAPKAPK2 (Homo sapiens, UniProt P49137)
MAP3K8 (COT) = MAP3K8 (COT) (Homo sapiens, UniProt P41279)
ABL1 E255K = ABL1 E255K (Homo sapiens, UniProt P00519, E255K)
IGF1R = IGF1R (Homo sapiens, UniProt P08069)
RET = RET (Homo sapiens, UniProt P07949)
MAPK8 (JNK1) = MAPK8 (JNK1) (Homo sapiens, UniProt P45983)
PAK3 = PAK3 (Homo sapiens, UniProt O75914)
CLK2 = CLK2 (Homo sapiens, UniProt P49760)
AMPK A1/B1/G1 = AMPK A1/B1/G1 (Homo sapiens, UniProt Q13131)
ABL1 F317I = ABL1 F317I (Homo sapiens, UniProt P00519, F317I)
Sequence of ABL1 F317I (P00519 whole entry F317I): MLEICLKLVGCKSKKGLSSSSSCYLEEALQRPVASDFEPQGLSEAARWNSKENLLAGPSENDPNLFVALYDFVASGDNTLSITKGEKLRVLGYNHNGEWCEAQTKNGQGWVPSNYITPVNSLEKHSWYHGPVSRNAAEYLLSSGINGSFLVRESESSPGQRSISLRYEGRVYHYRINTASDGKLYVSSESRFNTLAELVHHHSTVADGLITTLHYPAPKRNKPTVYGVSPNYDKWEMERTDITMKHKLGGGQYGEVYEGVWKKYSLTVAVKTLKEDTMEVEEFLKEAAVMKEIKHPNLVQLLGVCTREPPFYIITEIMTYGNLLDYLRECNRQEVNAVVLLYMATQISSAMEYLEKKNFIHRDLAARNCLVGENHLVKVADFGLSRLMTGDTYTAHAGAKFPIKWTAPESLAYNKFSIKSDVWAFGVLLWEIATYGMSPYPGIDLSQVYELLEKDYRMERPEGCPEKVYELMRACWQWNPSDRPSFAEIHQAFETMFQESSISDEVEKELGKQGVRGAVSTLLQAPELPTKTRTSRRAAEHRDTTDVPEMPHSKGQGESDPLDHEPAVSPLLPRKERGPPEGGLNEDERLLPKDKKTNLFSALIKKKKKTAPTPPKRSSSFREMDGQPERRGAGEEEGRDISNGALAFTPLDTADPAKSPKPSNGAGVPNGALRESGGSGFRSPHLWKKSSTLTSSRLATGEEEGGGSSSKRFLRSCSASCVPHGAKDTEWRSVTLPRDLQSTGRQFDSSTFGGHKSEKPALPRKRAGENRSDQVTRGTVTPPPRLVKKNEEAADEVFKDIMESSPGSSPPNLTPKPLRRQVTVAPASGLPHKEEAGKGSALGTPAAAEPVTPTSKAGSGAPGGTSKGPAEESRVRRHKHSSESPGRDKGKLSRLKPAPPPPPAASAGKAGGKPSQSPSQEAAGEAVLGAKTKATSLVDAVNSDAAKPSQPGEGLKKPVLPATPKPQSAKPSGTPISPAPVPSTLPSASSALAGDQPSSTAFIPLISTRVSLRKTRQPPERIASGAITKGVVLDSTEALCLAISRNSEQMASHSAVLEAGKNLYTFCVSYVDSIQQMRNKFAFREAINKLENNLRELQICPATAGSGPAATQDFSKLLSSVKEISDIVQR

Sequence of PAK2 (PAK65) (Q13177 whole entry): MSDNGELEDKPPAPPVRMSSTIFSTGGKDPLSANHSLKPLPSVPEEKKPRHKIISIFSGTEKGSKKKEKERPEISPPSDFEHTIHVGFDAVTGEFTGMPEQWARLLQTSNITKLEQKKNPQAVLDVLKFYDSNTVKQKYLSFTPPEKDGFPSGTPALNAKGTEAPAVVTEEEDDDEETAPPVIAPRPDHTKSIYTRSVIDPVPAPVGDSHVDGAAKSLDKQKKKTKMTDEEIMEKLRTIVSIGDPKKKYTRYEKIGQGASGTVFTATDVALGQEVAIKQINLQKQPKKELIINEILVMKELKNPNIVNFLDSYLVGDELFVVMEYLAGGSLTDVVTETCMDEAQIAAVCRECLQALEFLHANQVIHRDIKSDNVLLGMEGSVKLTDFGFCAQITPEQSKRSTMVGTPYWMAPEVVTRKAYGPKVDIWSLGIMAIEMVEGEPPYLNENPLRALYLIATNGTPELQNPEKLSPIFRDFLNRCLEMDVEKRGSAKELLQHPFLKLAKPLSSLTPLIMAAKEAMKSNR
Sequence of CSNK1E (CK1 epsilon) (P49674 whole entry): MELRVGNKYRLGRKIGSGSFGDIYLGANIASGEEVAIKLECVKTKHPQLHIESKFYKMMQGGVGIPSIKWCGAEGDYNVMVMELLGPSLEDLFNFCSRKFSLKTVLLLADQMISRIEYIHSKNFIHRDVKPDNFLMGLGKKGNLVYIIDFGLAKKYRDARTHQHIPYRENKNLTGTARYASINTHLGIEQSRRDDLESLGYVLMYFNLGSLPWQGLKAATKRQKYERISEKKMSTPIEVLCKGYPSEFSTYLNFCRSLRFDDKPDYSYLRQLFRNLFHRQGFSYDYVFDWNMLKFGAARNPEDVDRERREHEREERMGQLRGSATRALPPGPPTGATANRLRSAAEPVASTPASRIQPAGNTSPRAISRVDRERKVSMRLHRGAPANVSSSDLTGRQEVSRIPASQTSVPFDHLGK
Sequence of MAPK8 (JNK1) (P45983 whole entry): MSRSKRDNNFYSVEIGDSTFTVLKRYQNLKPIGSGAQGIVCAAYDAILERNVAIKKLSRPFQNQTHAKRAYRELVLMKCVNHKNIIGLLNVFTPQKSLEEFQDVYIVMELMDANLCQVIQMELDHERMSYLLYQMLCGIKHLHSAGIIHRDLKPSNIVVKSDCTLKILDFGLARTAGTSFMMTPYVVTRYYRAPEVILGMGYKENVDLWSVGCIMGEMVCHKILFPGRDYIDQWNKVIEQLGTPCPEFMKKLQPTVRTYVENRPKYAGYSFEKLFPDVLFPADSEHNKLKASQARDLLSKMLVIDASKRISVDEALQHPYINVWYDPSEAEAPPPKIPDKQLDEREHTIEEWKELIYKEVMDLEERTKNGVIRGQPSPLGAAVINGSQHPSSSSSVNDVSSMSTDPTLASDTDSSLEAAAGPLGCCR
Sequence of TEK (TIE2) Y897S (Q02763 whole entry Y897S): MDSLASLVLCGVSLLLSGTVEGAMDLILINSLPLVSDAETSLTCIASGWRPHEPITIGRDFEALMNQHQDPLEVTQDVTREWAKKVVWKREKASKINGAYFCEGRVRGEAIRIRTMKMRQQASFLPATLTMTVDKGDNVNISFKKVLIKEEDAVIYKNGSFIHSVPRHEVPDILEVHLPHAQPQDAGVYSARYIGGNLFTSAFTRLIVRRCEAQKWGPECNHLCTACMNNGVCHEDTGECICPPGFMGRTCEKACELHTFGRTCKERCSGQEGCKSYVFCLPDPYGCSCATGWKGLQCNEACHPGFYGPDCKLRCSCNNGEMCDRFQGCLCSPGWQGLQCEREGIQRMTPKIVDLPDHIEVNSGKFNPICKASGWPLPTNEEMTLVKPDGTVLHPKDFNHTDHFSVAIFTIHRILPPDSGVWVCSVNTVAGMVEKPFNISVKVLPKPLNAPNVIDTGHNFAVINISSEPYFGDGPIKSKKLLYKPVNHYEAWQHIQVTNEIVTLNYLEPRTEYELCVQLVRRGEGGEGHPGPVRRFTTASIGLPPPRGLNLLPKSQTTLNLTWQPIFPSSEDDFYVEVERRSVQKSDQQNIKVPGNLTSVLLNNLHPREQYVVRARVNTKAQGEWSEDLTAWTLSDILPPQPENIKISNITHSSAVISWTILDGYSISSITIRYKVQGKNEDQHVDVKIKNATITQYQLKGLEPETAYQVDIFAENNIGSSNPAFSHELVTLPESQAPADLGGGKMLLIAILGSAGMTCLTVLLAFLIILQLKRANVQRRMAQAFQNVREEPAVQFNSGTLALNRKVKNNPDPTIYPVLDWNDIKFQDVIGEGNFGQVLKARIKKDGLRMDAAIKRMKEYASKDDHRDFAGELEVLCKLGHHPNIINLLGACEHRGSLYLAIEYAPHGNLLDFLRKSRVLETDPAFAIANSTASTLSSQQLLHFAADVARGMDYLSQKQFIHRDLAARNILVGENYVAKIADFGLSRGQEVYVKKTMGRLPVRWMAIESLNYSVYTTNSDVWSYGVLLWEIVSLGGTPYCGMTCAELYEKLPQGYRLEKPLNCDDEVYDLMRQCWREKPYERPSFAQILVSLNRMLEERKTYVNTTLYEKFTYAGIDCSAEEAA
Sequence of BTK (Q06187 whole entry): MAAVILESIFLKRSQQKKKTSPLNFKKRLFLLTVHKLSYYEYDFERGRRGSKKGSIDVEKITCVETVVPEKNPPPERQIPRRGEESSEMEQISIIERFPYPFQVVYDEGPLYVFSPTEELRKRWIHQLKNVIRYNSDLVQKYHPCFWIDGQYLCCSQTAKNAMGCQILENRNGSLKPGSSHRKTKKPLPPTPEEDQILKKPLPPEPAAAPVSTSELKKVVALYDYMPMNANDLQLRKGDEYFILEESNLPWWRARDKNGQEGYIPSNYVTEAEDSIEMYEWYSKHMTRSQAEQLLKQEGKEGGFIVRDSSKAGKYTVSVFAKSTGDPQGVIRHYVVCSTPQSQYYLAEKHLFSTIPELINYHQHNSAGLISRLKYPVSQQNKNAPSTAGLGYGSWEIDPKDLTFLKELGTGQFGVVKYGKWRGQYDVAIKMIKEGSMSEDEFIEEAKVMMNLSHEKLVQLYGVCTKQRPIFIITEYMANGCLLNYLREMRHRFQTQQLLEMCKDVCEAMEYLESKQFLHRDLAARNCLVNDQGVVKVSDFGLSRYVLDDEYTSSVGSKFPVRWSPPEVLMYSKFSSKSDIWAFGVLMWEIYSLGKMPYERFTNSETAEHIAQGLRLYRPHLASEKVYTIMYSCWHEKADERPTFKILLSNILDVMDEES
Sequence of MAP3K8 (COT) (P41279 whole entry): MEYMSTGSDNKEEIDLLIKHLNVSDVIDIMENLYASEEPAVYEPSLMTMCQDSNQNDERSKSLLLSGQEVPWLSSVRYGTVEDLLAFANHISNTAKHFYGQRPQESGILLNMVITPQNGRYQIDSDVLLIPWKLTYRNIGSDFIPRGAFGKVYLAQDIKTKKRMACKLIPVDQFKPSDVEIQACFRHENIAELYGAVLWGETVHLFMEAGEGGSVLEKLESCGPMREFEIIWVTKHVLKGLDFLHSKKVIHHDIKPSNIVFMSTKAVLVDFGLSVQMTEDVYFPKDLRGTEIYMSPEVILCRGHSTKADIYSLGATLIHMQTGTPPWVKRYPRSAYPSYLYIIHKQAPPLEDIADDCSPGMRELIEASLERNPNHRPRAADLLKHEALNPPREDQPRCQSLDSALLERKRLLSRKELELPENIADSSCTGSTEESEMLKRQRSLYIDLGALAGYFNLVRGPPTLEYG
Sequence of ABL1 E255K (P00519 whole entry E255K): as the sequence (P00519 whole entry F317I) above, with E255K, I317F counted along it

SMILES: COc1ccc2nc3cc(Cl)ccc3c(Nc3cc(CN4CCCC4)c(O)c(CN4CCCC4)c3)c2n1 [Pyronaridine, 4-[(7-Chloro-2-methoxybenzo[b][1,5]naphthyridin-10-yl)amino]-2,6-bis(1-pyrrolidinylmethyl)phenol phosphate (1:4)]
- inhibition at 1 µM (PRKACA (PKA)): 1%
- inhibition at 1 µM (PLK3): 28%
- inhibition at 1 µM (CSNK1E (CK1 epsilon)): 1%
- inhibition at 1 µM (CDC42 BPA (MRCKA)): 2%
- inhibition at 1 µM (CSNK2A2 (CK2 alpha 2)): 5%
- inhibition at 1 µM (TEK (TIE2) Y897S): 2%
- inhibition at 1 µM (LYN A): -2%
- inhibition at 1 µM (MARK2): 6%
- inhibition at 1 µM (PAK2 (PAK65)): -1%
- inhibition at 1 µM (AMPK (A1/B2/G3)): 4%
- inhibition at 1 µM (GRK5): 10%
- inhibition at 1 µM (KIT): -2%
- inhibition at 1 µM [1]: 2%
- inhibition at 1 µM (FLT1 (VEGFR1)): -6%
- inhibition at 1 µM (RPS6KB2 (p70S6Kb)): -4%
- inhibition at 1 µM (PDGFRB (PDGFR beta)): 0%
- inhibition at 1 µM (BTK): 9%
- inhibition at 1 µM (DAPK3 (ZIPK)): 2%
- inhibition at 1 µM (MAPKAPK2): 10%
- inhibition at 1 µM (MAP3K8 (COT)): -6%
- inhibition at 1 µM (ABL1 E255K): 7%
- inhibition at 1 µM (IGF1R): 6%
- inhibition at 1 µM (RET): 5%
- inhibition at 1 µM (MAPK8 (JNK1)): 3%
- inhibition at 1 µM (PAK3): -7%
- inhibition at 1 µM (CLK2): 3%
- inhibition at 1 µM (AMPK A1/B1/G1): 5%
- inhibition at 1 µM (ABL1 F317I): 0%
